In patent publication US20220265683A1, “HALOGENATED SALICYLANILIDES FOR THE TREATMENT OF DERMATITIS” (priority 2018, published 2022):
Marks after values point to notes of the source that are not given here.

How the values were obtained:
[1] = system: skin barrier and inflammation biomarkers in lesional skin biopsies; test: Biomarker gene expression in lesional skin biopsies by qRT-PCR (TLDA), Example 3; assay type: in vivo, human; settings: only responder population, 3 weeks
Description: (§1) Patients received topical applications of a niclosamide 2% composition and vehicle once daily for 3 weeks, followed by a 1-week follow up period. Topical niclosamide 2% and vehicle was applied on two separate target lesions of atopic dermatitis (lesions of at least 3×3-cm that are at least 2 cm apart, excluding the face, scalp, genitals, hands, and feet). The application areas (5×5-cm) were randomized (1:1) to once daily application of niclosamide 2% or vehicle at 5 mg/cm^2 without occlusion 6 days per week. Patients came to the study site for all study product application for a total of 3 weeks.
(§2) Three skin biopsies were collected in all patients (one from lesional skin at baseline, pre-dosing at Day 1, and two from lesional skin at Day 22 (one where topical niclosamide 2% had been applied and one where the vehicle had been applied). The lesional skin biopsies were analysed for skin thickness and inflammation biomarkers.
Skin barrier and inflammation biomarker levels were determined from lesional skin biopsies from application areas.
(§3) The skin biopsy samples were analysed by immunohistochemistry (IHC), and by gene expression studies by RT-PCR using TaqMan Low Density Array (TLDA), and by microarray using Affymetrix U133A Plus 2. The immunohistochemistry (IHC) was used to analyse cell biomarkers. The methodologies as disclosed by Guttman-Yassky et al, “Major differences in inflammatory dendritic cells and their products distinguish atopic dermatitis from psoriasis”, The Journal of Allergy and Clinical Immunology, vol. 119, issue 5, pages 1210-1217, 2007, were followed except for that U133A Plus 2-set Gene Chip probe arrays was used instead of U95A-set Gene Chip probe arrays.
Expression values (threshold cycle [Ct]) were normalized to Rplp0 by negatively transforming the Ct values to −dCt (IL17A was normalized to hARP, as analysed by qPCR). The undetected −dCt values were estimated for each gene as the 20% of the minimum across all samples. qRT-PCR expression data were modelled using a mixed effect model with Visit and Treatment Area as a fixed effect and a random intercept for each patient. This formulation intrinsically models the within patient correlation structure as in the case of a paired t-test. This approach introduces less bias than restricting the analysis for those patients who completed the study. Contrasts were used to estimate the fold changes with treatment within each treatment group and conduct hypothesis testing.

[2] = system: skin barrier and inflammation biomarkers in lesional skin biopsies; test: Biomarker gene expression in lesional skin biopsies by microarray (Affymetrix U133A Plus 2), Example 3; assay type: in vivo, human
Description: as §1, §2, §3
Experimental design: The hybridization strategy was in concordance with experimental design principles, by for example keeping all samples from the same patient in the same date, and always include samples from every treatment arm/group.
Quality Control and Pre-processing: Quality control of microarray chips were carried out using standard QC metrics and R package microarray Quality Control. Expression measures were obtained using GCRMA algorithm (Wu & Irizarry, 2004). Several visual and modelling techniques were used to elucidate if batch effect existed. Principal Component analysis plots were used to detect if any evident batch effect existed. If such batch effects were found, they were adjusted using Combat, an empirical Bayes method for adjusting data for batch effects that is robust to outliers in small sample sizes (Johnson, Li, & Rabinovic, 2007). The implementation of Combat by package sva was used.
Probe-sets with at least 5% samples with expression larger than 3 (in log 2-scale) were kept for further analysis. Expression values were modelled using mixed-effect models with fixed factors Visit and Treatment Area and a random effect for each patient. Fold changes for the comparisons of interest were estimated and hypothesis testing was conducted on such comparisons using contrasts under the general framework for linear models in limma package. The inter-replicate correlation was computed by Duplicate Correlation function and the linear model was estimated by ImFit. P-values from the moderated (paired) t-test were adjusted for multiple hypotheses using the Benjamini-Hochberg procedure, which controls for FDR.

[3] = system: CD3, langerin, CD11c and FceR1 cells in skin biopsies; test: Immunohistochemistry (IHC) of cell markers in lesional skin biopsies, Example 3; assay type: in vivo, human; settings: Day 22, 2% topical
Description: as §2, §3

[4] = system: dendritic cells; settings: in-vitro; cited from earlier work
[5] = system: biomarkers in lesional AD skin; settings: 4 weeks, qRT-PCR; cited from earlier work
[6] = microarray fold change, Day 22, sign as niclosamide vs vehicle
[7] = only responder population, 3 weeks, Microarray

Compound: O=C(Nc1ccc([N+](=O)[O-])cc1Cl)c1cc(Cl)ccc1O [Niclosamide, niclosamide]
- CCL17, Niclosamide 2% qd vs. predose [1]: −3.42^d
- CCL18, Niclosamide 2% qd vs. predose [1]: −3.46^d
- CCL20, Niclosamide 2% qd vs. predose [1]: −2^d
- CCL22, Niclosamide 2% qd vs. predose [1]: −2.56^d
- CXCL1, Niclosamide 2% qd vs. predose [1]: −3.82^d
- CXCL2, Niclosamide 2% qd vs. predose [1]: −2.11^d
- CXCL10, Niclosamide 2% qd vs. predose [1]: −1.96^d
- DEFB4B, Niclosamide 2% qd vs. predose [1]: −7.18^c
- FLG, Niclosamide 2% qd vs. predose [1]: 2.06^e
- IL5, Niclosamide 2% qd vs. predose [1]: −3.69^d
- IL10, Niclosamide 2% qd vs. predose [1]: −2.16^d
- IL13, Niclosamide 2% qd vs. predose [1]: −3.18^d
- IL17A, Niclosamide 2% qd vs. predose [1]: −3.12^d
- IL17C, Niclosamide 2% qd vs. predose [1]: −3.91^d
- IL19, Niclosamide 2% qd vs. predose [1]: −6.65^c
- K16/KRT16, Niclosamide 2% qd vs. predose [1]: −8.46^c
- LOR, Niclosamide 2% qd vs. predose [1]: 2.84^f
- MMP12, Niclosamide 2% qd vs. predose [1]: −5.12^c
- PI3, Niclosamide 2% qd vs. predose [1]: −11.2^b
- S100A12, Niclosamide 2% qd vs. predose [1]: −10.5^b
- CXCL1, 2% niclosamide compared to vehicle [2, 6]: −2.10
- S100A12, 2% niclosamide compared to vehicle [2, 6]: −2.30
- CD3d, Niclosamide 2% qd vs. predose [2, 7]: −2.2^d
- IL4R, Niclosamide 2% qd vs. predose [2, 7]: −2.19^d
- IL15, Niclosamide 2% qd vs. predose [2, 7]: −1.59^d
- IL22, Niclosamide 2% qd vs. predose [2, 7]: −2.1^d
- JAK3, Niclosamide 2% qd vs. predose [2, 7]: −1.86^d
- S100A8, Niclosamide 2% qd vs. predose [2, 7]: −1.82^d
- S100A9, Niclosamide 2% qd vs. predose [2, 7]: −5.15^d
- STAT3, Niclosamide 2% qd vs. predose [2, 7]: −1.54^d
- inflammatory cells (dendritic cells: CD11c, FceR1 in epidermis; Langerhans cells: langerin/CD207) compared to baseline [3]: Significant reductions in inflammatory cells
- total amount of T cells (dermis and epidermis) compared to baseline [3]: No significant change
- LPS-induced dendritic cell maturation, cytokine, costimulatory and MHC molecule expression [4]: inhibitory action

Compound: Dupilumab: inhibits interleukin-4 and interleukin-13 signalling by binding to interleukin-4 receptor α
- CCL17, Dupilumab 300 mg vs. predose [5]: −9.2^b
- CCL18, Dupilumab 300 mg vs. predose [5]: −7.6^c
- CCL22, Dupilumab 300 mg vs. predose [5]: −2.1^d
- CCL26, Dupilumab 300 mg vs. predose [5]: −6.3^c
- K16/KRT16, Dupilumab 300 mg vs. predose [5]: −10.7^b
- MMP12, Dupilumab 300 mg vs. predose [5]: −14^b
- S100A8, Dupilumab 300 mg vs. predose [5]: −3^d
- S100A12, Dupilumab 300 mg vs. predose [5]: −10.4^b
